How the values were obtained:
[1] = tested on: Puccinia recondita f. sp. Tritici; experiment: Fungicidal activity against Puccinia recondita f. sp. Tritici / wheat / leaf disc preventative (brown rust); type: in vivo; conditions: foliar, 200 ppm in the applied formulation, wheat leaf segments cv. Kanzler, inoculated 1 day after application, vs untreated control, read-out: disease control
Summary of the method: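 Sprayed at 200 ppm one day ahead of spore inoculation, wheat leaf segments of cultivar Kanzler sat on agar under 19° C., 75% relative humidity and alternating 12-hour light and dark. Efficacy was taken as percent disease control relative to untreated segments after 7 to 9 days.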

Phakopsora pachyrhizi = experiment: Fungicidal activity against Phakopsora pachyrhizi / soybean / leaf disc preventative (Asian soybean rust); type: in vivo; conditions: foliar, 200 ppm in the applied formulation, soybean leaf disks, vs untreated control, read-out: disease control
Summary of the method: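 Preventative test: compound sprayed onto soybean leaf discs one day before spore inoculation of the lower leaf face. Incubation at 20 °C and 75% rh, first 24-36 h in darkness, then a 12 h light cycle. Disease control versus untreated discs read 12-14 days after application.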

[2] = tested on: Puccinia recondita f. sp. Tritici; experiment: Fungicidal activity against Puccinia recondita f. sp. Tritici / wheat / leaf disc curative (brown rust); type: in vivo; conditions: foliar, 24 h, 200 ppm in the applied formulation, wheat leaf segments cv. Kanzler, applied 1 day after inoculation, vs untreated control, read-out: disease control
Summary of the method: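 Curative leaf-segment test, cv. Kanzler: spore inoculation, dark storage 19° C/75% RH, compound spray 1 day post-inoculation. Then 12 h light/12 h dark, 19° C, 75% RH. Read-out: % disease control vs untreated check, 6–8 d after application.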

[3] = tested on: Glomerella lagenarium (Colletotrichum lagenarium); experiment: Fungicidal activity against Glomerella lagenarium (Colletotrichum lagenarium) liquid culture / cucumber / preventative (anthracnose); type: cell-based; conditions: Colletotrichum orbiculare, 72 h; 20 ppm in the applied formulation; liquid culture (PDB), growth inhibition measured photometrically 3 to 4 days after application; vs untreated control; read-out: disease control
Summary of the method: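 PDB broth seeded with cryo-stored conidia, added onto compound (DMSO solution) in 96-well plates; 24° C.; photometric growth read at 3–4 d post-application; % inhibition vs untreated check.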

Structure (SMILES) | pest or weed control at 200 ppm [1] | pest or weed control at 200 ppm (Phakopsora pachyrhizi) | pest or weed control at 200 ppm [2] | melting point | inhibition of growth at 20 ppm [3]
CON=C(C)CNC(=O)c1ccc(-c2noc(C(F)(F)F)n2)c(F)c1 [Compound 1.164, 3-fluoro-N-(2-methoxyimino-propyl)-4-[5-(trifluoromethyl)-1,2,4-oxadiazol-3-yl]benzamide] | ≥ 80% | ≥ 80% | ≥ 80% | 131 to 134 °C | ≥ 80%
CCON=C(C)CNC(=O)c1ccc(-c2noc(C(F)(F)F)n2)c(F)c1 [Compound 1.165, N-(2-ethoxyiminopropyl)-3-fluoro-4-[5-(trifluoromethyl)-1,2,4-oxadiazol-3-yl]benzamide] | ≥ 80% | ≥ 80% | ≥ 80% | 120 to 124 °C | ≥ 80%
CON=CCNC(=O)c1ccc(-c2noc(C(F)(F)F)n2)c(F)c1 [Compound 1.166, 3-fluoro-N-(2-methoxyimino-ethyl)-4-[5-(trifluoromethyl)-1,2,4-oxadiazol-3-yl]benzamide] | ≥ 80% | ≥ 80% | ≥ 80% | 120 to 122 °C | ≥ 80%
C#CCO/N=C/CCNC(=O)c1ccc(-c2noc(C(F)(F)F)n2)cc1 [Compound 1.167, N-[(3E)-3-prop-2-ynoxyiminopropyl]-4-[5-(trifluoromethyl)-1,2,4-oxadiazol-3-yl]benzamide] | ≥ 80% | ≥ 80% | ≥ 80% | 89 to 91 °C | ≥ 80%
CC(C)ON=CCCNC(=O)c1ccc(-c2noc(C(F)(F)F)n2)cc1 [Compound 1.168, N-(3-isopropoxyimino-propyl)-4-[5-(trifluoromethyl)-1,2,4-oxadiazol-3-yl]benzamide] | ≥ 80% | ≥ 80% | ≥ 80% | 122 to 124 °C | ≥ 80%

Reference: patent US11192867B2, “Microbiocidal oxadiazole derivatives” (SYNGENTA PARTICIPATIONS AG, priority 2016, dated 2021)
